From ChEMBL document CHEMBL1159354, “Sphingolipids from Bombycis Corpus 101A and their neurotrophic effects” (J Nat Prod, 2003)
Calls of active or inactive are those of the source. The rule behind the calls is not given here.

Key:
PC-12 [1] = test: Induction of neurite outgrowth in rat PC12 cells assessed as neurite length at 10 uM; format: functional, cell-based
PC-12 [2] = test: Induction of neurite outgrowth in rat PC12 cells assessed as neurite length; format: functional, cell-based

Row | Structure (SMILES) | Activity (PC-12 [1]) | Activity (PC-12 [2])
1 | CCCCCCC/C=C/C=C/[C@@H](O)[C@H](CO)NC(=O)CCCCCCCCCCCCCCCCCCC | Active | 
2 | CCCCCCCCC/C=C/[C@@H](O)[C@H](CO)NC(=O)CCCCCCCCCCCCCCCCCCC |  | Active
3 | CCCCCCC/C=C/C=C/[C@@H](O)[C@H](CO)NC(=O)CCCCCCCCCCCCCCCCCCCCC | Active | 
4 | CCCCCCCCC/C=C/[C@@H](O)[C@H](CO)NC(=O)CCCCCCCCCCCCCCCCC |  | Active
